In PubChem BioAssay (NCI):
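Compound exposure: 48 hours, 5 concentrations, 96-well plates. Here, GI50 denotes the concentration required for 50% inhibition of growth. Definition used: TGI = concentration required for complete inhibition of growth.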

What was measured:
Test in all cases: inhibition of tumour cell growth, NCI panel, 48 h
NCI-H460 lung = tested on: NCI-H460 lung
HCC-2998 colon = tested on: HCC-2998 colon
SW-620 colon = tested on: SW-620 colon
UO-31 renal = tested on: UO-31 renal
LXFL 529 NSCLC = tested on: LXFL 529 NSCLC
HL-60(TB) leukemia = tested on: HL-60(TB) leukemia
SNB-78 CNS = tested on: SNB-78 CNS
RPMI-8226 leukemia = tested on: RPMI-8226 leukemia
SF-268 CNS = tested on: SF-268 CNS
HCT-116 colon = tested on: HCT-116 colon
DMS 114 small cell lung = tested on: DMS 114 small cell lung
HOP-92 NSCLC = tested on: HOP-92 NSCLC
M19-MEL melanoma = tested on: M19-MEL melanoma
COLO 205 colon = tested on: COLO 205 colon
HOP-62 NSCLC = tested on: HOP-62 NSCLC
CCRF-CEM leukemia = tested on: CCRF-CEM leukemia

## O=C([CH-]C(=O)c1ccccc1)c1ccccc1.[C-]#[O+].[C-]#[O+].[Ir]
NCI-H460 lung
  GI50: 39.7 µM
  TGI: > 100 µM
HCC-2998 colon
  GI50: > 100 µM
  TGI: > 100 µM
SW-620 colon
  GI50: 59.4 µM
  TGI: > 100 µM
UO-31 renal
  GI50: 45.2 µM
  TGI: > 100 µM

## Cc1cc(N(CCC#N)S(=O)(=O)c2ccccc2)ccc1C=Nc1cccc(C(=O)O)c1
LXFL 529 NSCLC
  TGI: > 100 µM
HL-60(TB) leukemia
  TGI: > 100 µM
SNB-78 CNS
  TGI: > 100 µM
NCI-H460 lung
  TGI: > 100 µM
RPMI-8226 leukemia
  TGI: > 100 µM
SF-268 CNS
  TGI: > 100 µM
HCT-116 colon
  TGI: > 100 µM
HCC-2998 colon
  TGI: > 100 µM
SW-620 colon
  TGI: > 100 µM
UO-31 renal
  TGI: > 100 µM
DMS 114 small cell lung
  TGI: > 100 µM
HOP-92 NSCLC
  TGI: > 100 µM
M19-MEL melanoma
  TGI: > 100 µM
COLO 205 colon
  TGI: > 100 µM
HOP-62 NSCLC
  TGI: > 100 µM
CCRF-CEM leukemia
  TGI: > 100 µM
